Laboratory results as given in patent US11198713B2, “Agents modulating beta-catenin functions and methods thereof” (FOG PHARMACEUTICALS, INC., priority 2017, dated 2021).

Target: T1, full-length beta-catenin (Axin site) (Homo sapiens, UniProt P35222)
T1 construct: 15 nM full-length beta-catenin, 20 nM FITC labeled peptide in buffer
T1 sequence (P35222 1-781): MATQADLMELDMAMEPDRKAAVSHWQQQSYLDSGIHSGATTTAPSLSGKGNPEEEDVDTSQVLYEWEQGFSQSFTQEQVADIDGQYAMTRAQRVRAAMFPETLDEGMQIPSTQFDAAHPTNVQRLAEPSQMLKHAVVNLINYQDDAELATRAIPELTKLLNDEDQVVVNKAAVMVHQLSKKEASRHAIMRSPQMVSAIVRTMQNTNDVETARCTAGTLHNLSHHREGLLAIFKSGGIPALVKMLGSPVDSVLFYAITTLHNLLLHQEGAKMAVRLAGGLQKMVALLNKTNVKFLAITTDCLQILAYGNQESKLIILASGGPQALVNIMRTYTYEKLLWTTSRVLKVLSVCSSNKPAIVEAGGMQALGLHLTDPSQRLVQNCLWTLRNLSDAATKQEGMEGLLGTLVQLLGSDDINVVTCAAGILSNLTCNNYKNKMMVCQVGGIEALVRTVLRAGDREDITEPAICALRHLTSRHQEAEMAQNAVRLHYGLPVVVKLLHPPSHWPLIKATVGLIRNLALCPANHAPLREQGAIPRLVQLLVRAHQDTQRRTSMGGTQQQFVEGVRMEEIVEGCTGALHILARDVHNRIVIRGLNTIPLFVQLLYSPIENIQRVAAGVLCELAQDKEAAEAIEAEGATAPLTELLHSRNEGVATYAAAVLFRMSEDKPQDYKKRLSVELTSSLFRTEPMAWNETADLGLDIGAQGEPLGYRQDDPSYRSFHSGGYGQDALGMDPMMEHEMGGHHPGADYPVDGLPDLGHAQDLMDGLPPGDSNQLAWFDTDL
Assay: Competition fluorescence polarization assay (Axin site probe)
Format: binding
Settings: competition fluorescence polarization, Table 2; read-out: in vitro FP EC50
Procedure: FIG. 1. […] Peptide solutions were prepared in buffer (50 mM Tris pH 8.0, 250 mM NaCl, 2% glycerol, 0.5 mM EDTA, 0.02% w/v sodium azide) using a 3-fold serial dilution from 5 μM. Probe solution (15 nM full-length 13-Catenin, 20 nM FITC labeled peptide (FITC-PEG1-PQ-S5-ILD-S5-HVRRVWR (SEQ ID NO: 1) (hydrocarbon staple formed by two S5 via olefin metathesis)) in buffer) was prepared and incubated for 5 minutes, then 40 μL per well plated in a black polystyrene 384-well plate (Corning). Equal volume of the titrated peptide was added to the plate and incubated protected from light for 15 minutes prior to read. Reads were performed on a Spectramax M5 (Molecular Devices) in duplicate.
FIG. 7. […] BCL9 Competition FP assay: Peptide solutions were prepared in buffer (50 mM Tris pH 8.0, 250 mM NaCl, 2% glycerol, 0.5 mM EDTA, 0.02% w/v sodium azide) using a 3-fold serial dilution from 10 μM. Probe solution (250 nM full-length beta-catenin, 20 nM 5FAM labeled peptide in buffer) was prepared and 40 μL per well plated in a black polystyrene 384-well plate (Corning). Equal volume of the titrated peptide was added to the plate and incubated protected from light for 15 minutes prior to read. Reads were performed on a Spectramax M5 (Molecular Devices) in duplicate. Probe: Ac-[…]nLeu-Leu-2NapA-bala-bala-Lys5FAM-NH2 (SEQ ID NO: 2) (from Biochemistry, 2009, 48 (40), pp 9534-9541). Axin Competition FP assay: Peptide solutions were prepared in buffer (50 mM Tris pH 8.0, 250 mM NaCl, 2% glycerol, 0.5 mM EDTA, 0.02% w/v sodium azide) using a 3-fold serial dilution from 5 μM. Probe solution (15 nM full-length beta-catenin, 20 nM FITC labeled peptide in buffer) was prepared and incubated for 5 minutes, then 40 μL per well plated in a black polystyrene 384-well plate (Corning). Equal volume of the titrated peptide was added to the plate and incubated protected from light for 15 minutes prior to read. Reads were performed on a Spectramax M5 (Molecular Devices) in duplicate. Probe: FITC-StAx-33 from Grossmann et al. PNAS 109 17942-17947.

Row | Compound | EC50
1 | CC[C@H](C)[C@@H]1NC(=O)[C@](C)(NC(=O)[C@H](CCC(N)=O)NC(=O)[C@@H]2CCCN2C(C)=O)CCCC=CCN(C)CCC[C@](C)(C(=O)N[C@@H](Cc2c[nH]cn2)C(=O)N[C@H](C(=O)N[C@@H](CCCNC(=N)N)C(=O)N[C@@H](CCCNC(=N)N)C(=O)N[C@H](C(=O)N[C@@H](Cc2c[nH]c3ccccc23)C(=O)N[C@@H](CCCNC(=N)N)C(N)=O)C(C)C)C(C)C)NC(=O)[C@H](CC(=O)O)NC(=O)[C@H](CC(C)C)NC1=O (single isomer, unassigned) [FP0777a, Ac-P-Q-R5-I-L-D-MI-H-V-R-R-V-W-R-NH2] | 0.5 to 5 µM
2 | CC[C@H](C)[C@@H]1NC(=O)[C@H](Cc2ccccc2)NC(=O)[C@H](C)NC(=O)[C@H](CC(=O)O)NC(=O)[C@H](CC(C)C)NC(=O)[C@H]([C@@H](C)CC)NC(=O)[C@](C)(NC(=O)[C@H](C)NC(C)=O)CCCCCCC=CCOC(=O)N2CC[C@@](C(=O)N[C@@H](CCCNC(=N)N)C(=O)N[C@H](C(=O)N[C@@H](Cc3c[nH]c4ccccc34)C(N)=O)C(C)C)(C2)NC1=O [FP0540c, Ac-A-R8-I-L-D-A-F-I-MB-R-V-W-NH2] | > 5 µM
3 | CC[C@H](C)[C@@H]1NC(=O)[C@H](Cc2ccccn2)NC(=O)[C@H](C)NC(=O)[C@H](CC(=O)O)NC(=O)[C@H](CC(C)C)NC(=O)[C@H]([C@@H](C)CC)NC(=O)[C@](C)(NC(=O)[C@H](C)NC(C)=O)CCCCCCC=CCOC(=O)N2CC[C@@](C(=O)NC(C)(C)C(=O)N[C@H](C(=O)N[C@@H](Cc3c[nH]c4ccccc34)C(N)=O)C(C)C)(C2)NC1=O (single isomer, unassigned) [FP0570c Isomer 1, Ac-A-R8-I-L-D-A-2pyr-I-MB-Aib-V-W-NH2] | > 5 µM
4 | CC[C@H](C)[C@@H]1NC(=O)[C@H](Cc2ccccn2)NC(=O)[C@H](C)NC(=O)[C@H](CC(=O)O)NC(=O)[C@H](CC(C)C)NC(=O)[C@H]([C@@H](C)CC)NC(=O)[C@](C)(NC(=O)[C@H](C)NC(C)=O)CCCCCCC=CCOC(=O)N2CC[C@@](C(=O)N[C@@H](C)C(=O)N[C@H](C(=O)N[C@@H](Cc3c[nH]c4ccccc34)C(N)=O)C(C)C)(C2)NC1=O (single isomer, unassigned) [FP0554c Isomer 2, Ac-A-R8-I-L-D-A-2pyr-I-MB-A-V-W-NH2] | > 5 µM

Same assay, conditions: competition with FITC labeled Axin-site probe, 15 nM full-length beta-catenin; read-out: FP EC50

Row | Compound | EC50
5 | CC[C@H](C)[C@@H]1NC(=O)[C@@](C)(NC(=O)[C@H](CCC(N)=O)NC(=O)[C@@H]2CCCN2C(C)=O)CCCC=CCN2CC(C(=O)N[C@@H](Cc3c[nH]cn3)C(=O)N[C@H](C(=O)N[C@@H](CCCNC(=N)N)C(=O)N[C@@H](CCCNC(=N)N)C(=O)N[C@H](C(=O)N[C@@H](Cc3c[nH]c4ccccc34)C(=O)N[C@@H](CCCNC(=N)N)C(N)=O)C(C)C)C(C)C)(C2)NC(=O)[C@H](CC(=O)O)NC(=O)[C@H](CC(C)C)NC1=O (single isomer, unassigned) [FP-0734, Ac-P-Q-S5-I-L-D-Az-H-V-R-R-V-W-R-NH2] | > 5 µM
6 | CC[C@H](C)[C@@H]1NC(=O)[C@](C)(NC(=O)[C@H](CCC(N)=O)NC(=O)[C@@H]2CCCN2C(C)=O)CCCCCC=CCN2CC[C@](C(=O)N[C@@H](Cc3c[nH]cn3)C(=O)N[C@H](C(=O)N[C@@H](CCCNC(=N)N)C(=O)N[C@@H](CCCNC(=N)N)C(=O)N[C@H](C(=O)N[C@@H](Cc3c[nH]c4ccccc34)C(=O)N[C@@H](CCCNC(=N)N)C(N)=O)C(C)C)C(C)C)(C2)NC(=O)[C@H](CC(=O)O)NC(=O)[C@H](CC(C)C)NC1=O (single isomer, unassigned) [FP-0768, Ac-P-Q-R7-I-L-D-PR-H-V-R-R-V-W-R-NH2] | > 5 µM
7 | CC[C@H](C)[C@@H]1NC(=O)[C@](C)(NC(=O)[C@H](CCC(N)=O)NC(=O)[C@@H]2CCCN2C(C)=O)CCCC=CCN2CC[C@@](C(=O)N[C@@H](Cc3c[nH]cn3)C(=O)N[C@H](C(=O)N[C@@H](CCCNC(=N)N)C(=O)N[C@@H](CCCNC(=N)N)C(=O)N[C@H](C(=O)N[C@@H](Cc3c[nH]c4ccccc34)C(=O)N[C@@H](CCCNC(=N)N)C(N)=O)C(C)C)C(C)C)(C2)NC(=O)[C@H](CC(=O)O)NC(=O)[C@H](CC(C)C)NC1=O (single isomer, unassigned) [FP-0758, Ac-P-Q-R5-I-L-D-PS-H-V-R-R-V-W-R-NH2] | > 5 µM
